Assays:
[1] = test system: Aβ40 in conditioned medium of cells stably expressing Amyloid Precursor Protein (APP); test: In vitro BACE cell-based assay (Aβ40 in conditioned medium, sandwich ELISA); settings: Homo sapiens, HEK293, average IC50, HEK cells; read-out: HEK cell assay
Method in brief: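 Conditioned medium from stably APP-expressing cells treated with compound dose series is assayed for Aβ40 by sandwich ELISA with time-resolved fluorescence detection. IC50 is calculated from percent inhibition of Aβ40 against compound concentration.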

[2] = target: Beta Secretase enzyme (BACE) (Homo sapiens, UniProt P56817); test: In vitro enzymatic BACE FRET (fluorescence resonance energy transfer) assay; type: biochemical; settings: average IC50, enzyme assay; read-out: BACE 1 FRET assay
Method in brief: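 Acetate buffer (0.05 M, pH 4.2), 10% DMSO final, 100 uM nonionic detergent genapol. Substrate addition (50 nM FRET peptide) initiates; one-hour incubation; Tris raises pH to neutrality before fluorescence measurement.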

Sequence of Beta Secretase enzyme (BACE) (P56817 46-501, species assumed): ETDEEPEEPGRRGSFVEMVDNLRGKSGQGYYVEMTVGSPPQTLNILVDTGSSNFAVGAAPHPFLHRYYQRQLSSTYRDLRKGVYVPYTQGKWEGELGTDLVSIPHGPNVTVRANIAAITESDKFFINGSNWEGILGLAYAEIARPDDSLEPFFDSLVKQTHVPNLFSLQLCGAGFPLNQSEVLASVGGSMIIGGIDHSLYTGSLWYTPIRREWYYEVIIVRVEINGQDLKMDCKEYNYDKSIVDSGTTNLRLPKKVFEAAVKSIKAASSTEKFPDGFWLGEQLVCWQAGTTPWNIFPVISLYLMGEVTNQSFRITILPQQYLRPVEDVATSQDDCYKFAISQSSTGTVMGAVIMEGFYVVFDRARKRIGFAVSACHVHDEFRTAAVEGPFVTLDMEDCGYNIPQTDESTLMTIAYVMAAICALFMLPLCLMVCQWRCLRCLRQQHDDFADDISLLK

IC50 [1] [nM] | IC50 [2] [nM] | Compound
4 | 0.6 | NC1=NC2(CS1)c1cc(-c3cccnc3F)ccc1Oc1c2cc(C2=CCOCC2)nc1F (stereo not shown) [Example 638, 3-(3,6-dihydro-2H-pyran-4-yl)-1-fluoro-7-(2-fluoro-3-pyridinyl)spiro[chromeno[2,3-c]pyridine-5,4′-[1,3]thiazol]-2′-amine]
3 | 0.4 | NC1=N[C@@]2(CO1)c1cc(-c3cccnc3)ccc1Oc1c2cc(C2=CCOCC2)nc1F [Example 639, (5S)-3-(3,6-dihydro-2H-pyran-4-yl)-1-fluoro-7-(3-pyridinyl)spiro[chromeno[2,3-c]pyridine-5,4′-[1,3]oxazol]-2′-amine]
23 | 1.2 | NC1=N[C@@]2(CO1)c1cc(-c3cccnc3F)ccc1Oc1c(F)cc(-c3ccc(F)nc3)cc12 [Example 640, (4S)-4′-fluoro-7′-(2-fluoro-3-pyridinyl)-2′-(6-fluoro-3-pyridinyl)spiro[1,3-oxazole-4,9′-xanthen]-2-amine]
13 | 0.9 | COC(C)(C)C#Cc1cnc2c(c1)[C@]1(COC(N)=N1)c1cc(-c3cncc(F)c3)c(F)cc1O2 [Example 641, (5S)-8-fluoro-7-(5-fluoro-3-pyridinyl)-3-(3-methoxy-3-methyl-1-butyn-1-yl)spiro[chromeno[2,3-b]pyridine-5,4′-[1,3]oxazol]-2′-amine]
435 | 109 | COC(C)(C)C#Cc1cnc2c(c1)[C@@]1(COC(N)=N1)c1cc(-c3cncc(F)c3)c(F)cc1O2 [Example 642, (5R)-8-fluoro-7-(5-fluoro-3-pyridinyl)-3-(3-methoxy-3-methyl-1-butyn-1-yl)spiro[chromeno[2,3-b]pyridine-5,4′-[1,3]oxazol]-2′-amine]
15 | 1.1 | COC(C)(C)C#Cc1cnc2c(c1)[C@]1(COC(N)=N1)c1cc(-c3cncnc3)c(F)cc1O2 [Example 643, (5S)-8-fluoro-3-(3-methoxy-3-methyl-1-butyn-1-yl)-7-(5-pyrimidinyl)spiro[chromeno[2,3-b]pyridine-5,4′-[1,3]oxazol]-2′-amine]
228 | 68.2 | COC(C)(C)C#Cc1cnc2c(c1)[C@@]1(COC(N)=N1)c1cc(-c3cncnc3)c(F)cc1O2 [Example 644, (5R)-8-fluoro-3-(3-methoxy-3-methyl-1-butyn-1-yl)-7-(5-pyrimidinyl)spiro[chromeno[2,3-b]pyridine-5,4′-[1,3]oxazol]-2′-amine]
291 | 53.1 | NC1=N[C@]2(CO1)c1cc(-c3cnccc3F)c(F)cc1Oc1ncc(C3=CCOCC3)cc12 [Example 645, (5R)-3-(3,6-dihydro-2H-pyran-4-yl)-8-fluoro-7-(4-fluoro-3-pyridinyl)spiro[chromeno[2,3-b]pyridine-5,4′-[1,3]oxazol]-2′-amine]
16 | 2.2 | NC1=N[C@@]2(CO1)c1cc(-c3cnccc3F)c(F)cc1Oc1ncc(C3=CCOCC3)cc12 [Example 646, (5S)-3-(3,6-dihydro-2H-pyran-4-yl)-8-fluoro-7-(4-fluoro-3-pyridinyl)spiro[chromeno[2,3-b]pyridine-5,4′-[1,3]oxazol]-2′-amine]
16 | 2.1 | NC1=N[C@@]2(CO1)c1cc(-c3cncc(F)c3)c(F)cc1Oc1ncc(C3=CCOCC3)cc12 [Example 647, (5S)-3-(3,6-dihydro-2H-pyran-4-yl)-8-fluoro-7-(5-fluoro-3-pyridinyl)spiro[chromeno[2,3-b]pyridine-5,4-[1,3]oxazol]-2′-amine]
2780 | 330 | NC1=N[C@]2(CO1)c1cc(-c3cncc(F)c3)c(F)cc1Oc1ncc(C3=CCOCC3)cc12 [Example 648, (5R)-3-(3,6-dihydro-2H-pyran-4-yl)-8-fluoro-7-(5-fluoro-3-pyridinyl)spiro[chromeno[2,3-b]pyridine-5,4′-[1,3]oxazol]-2′-amine]
118 | 19.8 | Cc1ncc(-c2cc(F)c3c(c2)[C@]2(COC(N)=N2)c2cc(-c4ccc(F)nc4)ccc2O3)cn1 [Example 649, (4S)-4′-fluoro-7′-(6-fluoro-3-pyridinyl)-2′-(2-methyl-5-pyrimidinyl)spiro[1,3-oxazole-4,9′-xanthen]-2-amine]
251 | 9 | COc1cc(F)c2c(c1)[C@]1(CSC(N)=N1)c1cc(-c3cccnc3)ccc1O2 [Example 650, (4S)-4′-fluoro-2′-methoxy-7′-(3-pyridinyl)spiro[1,3-thiazole-4,9′-xanthen]-2-amine]
37 | 1.9 | CC#Cc1cc(F)c2c(c1)[C@]1(COC(N)=N1)c1cc(-c3cccnc3F)ccc1O2 [Example 651, (4S)-4′-fluoro-7′-(2-fluoro-3-pyridinyl)-2′-(1-propyn-1-yl)spiro[1,3-oxazole-4,9′-xanthen]-2-amine]
2170 | 1220 | COc1ccncc1-c1ccc2c(c1)[C@@]1(COC(N)=N1)c1cc(Cl)ncc1O2 [Example 652, (5S)-3-chloro-7-(4-methoxy-3-pyridinyl)spiro[chromeno[2,3-c]pyridine-5,4′-[1,3]oxazol]-2′-amine]
9 | 10.4 | COc1ccncc1-c1ccc2c(c1)[C@@]1(COC(N)=N1)c1cc(C3=CCOCC3)ncc1O2 [Example 653, (5S)-3-(3,6-dihydro-2H-pyran-4-yl)-7-(4-methoxy-3-pyridinyl)spiro[chromeno[2,3-c]pyridine-5,4′-[1,3]oxazol]-2′-amine]
13 | 6.1 | Cc1ccncc1-c1ccc2c(c1)[C@@]1(COC(N)=N1)c1cc(C3=CCOCC3)ncc1O2 [Example 654, (5S)-3-(3,6-dihydro-2H-pyran-4-yl)-7-(4-methyl-3-pyridinyl)spiro[chromeno[2,3-c]pyridine-5,4′-[1,3]oxazol]-2′-amine]
10000 | 600 | N#Cc1ccncc1-c1ccc2c(c1)[C@@]1(COC(N)=N1)c1cc(Cl)ncc1O2 [Example 655, 3-((5S)-2′-amino-3-chlorospiro[chromeno[2,3-c]pyridine-5,4′-[1,3]oxazol]-7-yl)-4-pyridinecarbonitrile]
66 | 10.4 | N#Cc1ccncc1-c1ccc2c(c1)[C@@]1(COC(N)=N1)c1cc(C3=CCOCC3)ncc1O2 [Example 656, 3-((5S)-2′-amino-3-(3,6-dihydro-2H-pyran-4-yl)spiro[chromeno[2,3-c]pyridine-5,4′-[1,3]oxazol]-7-yl)-4-pyridinecarbonitrile]
5 | 0.4 | NC1=N[C@@]2(CO1)c1cc(-c3cccnc3F)ccc1Oc1c2cc(C2=CCCCO2)nc1F [Example 657, (5S)-3-(3,4-dihydro-2H-pyran-6-yl)-1-fluoro-7-(2-fluoro-3-pyridinyl)spiro[chromeno[2,3-c]pyridine-5,4′-[1,3]oxazol]-2′-amine]
846 | 27.2 | NC1=N[C@@]2(CO1)c1cc(-c3cccnc3F)ccc1Oc1c2ccnc1F [Example 658, (5S)-1-fluoro-7-(2-fluoro-3-pyridinyl)spiro[chromeno[2,3-c]pyridine-5,4′-[1,3]oxazol]-2′-amine]
19 | 1.4 | NC1=N[C@@]2(CO1)c1cc(-c3cccnc3F)ccc1Oc1c2cc([C@@H]2CCCCO2)nc1F [Example 659, (5S)-1-fluoro-7-(2-fluoro-3-pyridinyl)-3-((2S)-tetrahydro-2H-pyran-2-yl)spiro[chromeno[2,3-c]pyridine-5,4′-[1,3]oxazol]-2′-amine]
8 | 0.5 | NC1=N[C@@]2(CO1)c1cc(-c3cccnc3F)ccc1Oc1c2cc([C@H]2CCCCO2)nc1F [Example 660, (5S)-1-fluoro-7-(2-fluoro-3-pyridinyl)-3-((2R)-tetrahydro-2H-pyran-2-yl)spiro[chromeno[2,3-c]pyridine-5,4′-[1,3]oxazol]-2′-amine]
852 | 18 | CC1(C#Cc2cc(F)c3c(c2)C2(COC(N)=N2)c2cc(-c4cncc(F)c4)ncc2O3)COC1 (stereo not shown) [Example 661, 9-fluoro-3-(5-fluoro-3-pyridinyl)-7-((3-methyl-3-oxetanyl)ethynyl)spiro[chromeno[2,3-c]pyridine-5,4′-[1,3]oxazol]-2′-amine]
129 | 3.3 | CC1(C#Cc2cc(F)c3c(c2)C2(COC(N)=N2)c2cc(-c4cccnc4F)ncc2O3)COC1 (stereo not shown) [Example 662, 9-fluoro-3-(2-fluoro-3-pyridinyl)-7-((3-methyl-3-oxetanyl)ethynyl)spiro[chromeno[2,3-c]pyridine-5,4′-[1,3]oxazol]-2′-amine]
8520 | 430 | COc1ccc2c(c1)[C@@]1(COC(N)=N1)c1cc(-n3nccc3C)cc(F)c1O2 [Example 663, (4S)-4′-fluoro-7′-methoxy-2′-(5-methyl-1H-pyrazol-1-yl)spiro[1,3-oxazole-4,9′-xanthen]-2-amine]
6670 | 1000 | COc1ccc2c(c1)[C@@]1(COC(N)=N1)c1cc(-n3ccc(C)n3)cc(F)c1O2 [Example 664, (4S)-4′-fluoro-7′-methoxy-2′-(3-methyl-1H-pyrazol-1-yl)spiro[1,3-oxazole-4,9′-xanthen]-2-amine]
4580 | 1100 | NC1=N[C@@]2(CO1)c1cc(O)ccc1Oc1c(F)cc(-n3cccn3)cc12 [Example 665, (4S)-2-amino-5′-fluoro-7′-(1H-pyrazol-1-yl)spiro[1,3-oxazole-4,9′-xanthen]-2′-ol]
13 | 0.8 | CC1(C#Cc2cnc3c(c2)[C@]2(CSC(N)=N2)c2cc(-c4cnccn4)ccc2O3)COC1 [Example 666, (5S)-3-((3-methyl-3-oxetanyl)ethynyl)-7-(2-pyrazinyl)spiro[chromeno[2,3-b]pyridine-5,4′-[1,3]thiazol]-2′-amine]
